Patent publication US20070020195A1, “Nasally administered appetite suppressants” (priority 2005, published 2007)
Values joined by “and” are separate entries in the source; they are usually repeats but may differ in a detail not shown here. Equal entries are not always repeated.

What was measured:
[1] = cited from earlier work
[2] = Dose-escalation food intake trial in obese subjects with Universal Eating Monitor (Examples 2-5); assay type: in vivo, human
[3] = 70 kg adult; cited from earlier work
[4] = Double-blind crossover food intake study, intranasal lidocaine vs saline before a fried chicken meal; assay type: in vivo, human; conditions: four subjects
Experimental: Three males and one female between 23 and 60 years of age with BMI's less than 25 kg/m2 participated in a study of food intake. The subjects presented to the food intake laboratory at noon after an overnight fast except for water from 9 pm the prior night on two occasions a week apart. They had 10 mg (0.5 cc) of lidocaine or 0.5 cc normal saline administered in each nostril 20 minutes before presentation of a meal consisting of fried chicken pieces and water. They were allowed to eat and drink as much or as little as they wished over a 20-minute period, and there were more chicken pieces than they could reasonably be expected to eat at one sitting. The order of the lidocaine and saline was balanced and the study was performed in a double-blind fashion.
The four subjects consumed 15%, 11%, 27% and 33% less on the lidocaine week compared to the placebo week. […] Sibutramine, an obesity drug, gives an 8% weight loss at 6 months and causes a 12% decrease in food intake.

[5] = applied topically; cited from earlier work

## CC(C)CC(N(C)C)C1(c2ccc(Cl)cc2)CCC1 (stereo not shown) [Sibutramine]
[1]; at 6 months
  weight loss: 8%
[1]; in vivo
  decrease in food intake: 12%

## Cn1c(=O)c2c(ncn2C)n(C)c1=O [caffeine]
[2]; about 200 mg caffeine orally or nasally added to lidocaine, Example 4
  effect on energy expenditure: increasing energy expenditure

## CCN(CC)CC(=O)Nc1c(C)cccc1C [lidocaine]
[3]
  maximum safe dosage for topical anesthetic: 500 mg
[4]; 10 mg (0.5 cc) lidocaine in each nostril 20 minutes before meal, BMI less than 25 kg/m2
  reduction in food consumed on lidocaine week compared to placebo week, individual subjects: 15% and 11% and 27% and 33%
[4]; 10 mg lidocaine in each nostril 20 minutes before meal, p<0.02
  overall reduction in food intake: 21.5%+10.2%
[2]; 2.5, 10 and 25 mg lidocaine per nostril vs saline, BMI 30-40, Example 2
  food consumption with escalating doses: reduction in food consumption
[5]
  duration of anesthesia: 30 to 45 min
  time to peak anesthesia: 2 to 5 min

## leptin
[2]; about 20 mg per day leptin added to lidocaine, Example 5
  anorexiant effect: further anorexiant effect
